{"source": "paper PMC12801676", "about": "“Guanidino compounds with native GABA(A) δ receptor selectivity: a tale of homeostatic compensation in δ-KO mice” (BMC Neuroscience, 2025)", "key": {"[1]": {"system": "GABARs in WT mouse forebrain membranes", "test": "[3H]muscimol displacement, WT forebrain membranes", "assay_type": "binding", "conditions": "for [3H]muscimol (5 nM) displacement: concentrations up to 0.3 mM, mouse forebrain; for IC50: 5 nM [3H]muscimol", "experimental": "(§1) Brain (sans cerebellum) membranes from WT and δ-KO mice were prepared as described and stored frozen at -70 °C. After thawing, membranes were washed once in assay buffer (50 mM Tris-HCl, pH 7.4) and incubated for 40 min with 5 nM [^3H]muscimol in assay buffer in a total volume of 300 µl at room temperature. […] Three milliliters of Optiphase HiSafe 3 scintillation fluid (Wallac, Turku, Finland) were added to air-dried filters and GABAR bound [^3H]muscimol radioactivity determined in a Hidex 600 SL liquid scintillation counter (Hidex, Turku, Finland)."}, "[2]": {"system": "native GABARs in WT cerebellar granule cells (CGCs)", "test": "Whole-cell patch clamp of WT cerebellar granule cells in brain slices, cumulative concentration-response", "conditions": "for CGC GABAR activity: concentrations up to 1 mM; for WT Imax / WT slope (Hill slope) / EC50: WT CGCs, mean ± SEM; for WT Imax: maximal evoked current at saturating agonist concentration; for EC50: read-out: WT EC50, steady-state currents at -70 mV, Hill fit"}, "creatine transporter": {"system": "creatine transporter", "parameters": "method as in PMID 35837012", "conditions": "recombinant (HEK) cell expression; ref [20]; cited from earlier work"}, "[3]": {"system": "native GABARs in δ-KO cerebellar granule cells (CGCs)", "test": "Whole-cell patch clamp of δ-KO cerebellar granule cells in brain slices, cumulative concentration-response", "assay_type": "cell-based, mouse", "conditions": "mean ± SEM; for δ-KO Imax: maximal evoked current at saturating agonist concentration; for EC50: steady-state currents at -70 mV, Hill fit"}, "[4]": {"target": "GABARs in δ-KO mouse forebrain membranes", "test": "[3H]muscimol displacement, δ-KO forebrain membranes", "assay_type": "binding", "conditions": "for IC50: δ-KO forebrain membranes, room temperature, mean ± SD", "experimental": "as §1"}, "taurine transporter": {"system": "taurine transporter", "parameters": "method as in PMID 512911", "conditions": "ref [24]; read-out: Km as taurine transporter substrate; cited from earlier work"}, "[5]": {"system": "recombinantly expressed γ2-GABARs", "parameters": "method as in PMID 9396785", "conditions": "ref [48], read-out: functional (EC50) muscimol responses; cited from earlier work"}, "α4β3δ receptors": {"target": "α4β3δ receptors", "parameters": "method as in PMID 30565258", "conditions": "ref [36], read-out: functional muscimol EC50; cited from earlier work"}, "[6]": {"conditions": "WT forebrain membranes, room temperature, mean ± SD, read-out: IC50 for [3H]muscimol displacement, WT"}}, "note": "Values joined by “and” are separate entries in the source; they are usually repeats but may differ in a detail not shown here. Equal values may be shown once. Read-outs that look alike come from different tables or passages of the source.", "data": [{"compound": "N=C(N)NCCCC(=O)C(=O)O", "note": "[α-K-δ-GVA, α-Keto-δ-guanidinovalerate]", "values": [{"measurement": "[3H]muscimol (5 nM) displacement", "setting": "[1]", "result": "absence of [^3H]muscimol (5 nM) displacement"}, {"measurement": "CGC GABAR activity", "setting": "[2]", "result": "absence of detectable CGC GABAR activity"}]}, {"compound": "[H]/N=C(\\N)NCCC(=O)O", "note": "[β-GPA, β-guanidinopropionate]", "values": [{"measurement": "EC50", "setting": "creatine transporter", "result": "~13", "unit": "µM"}, {"measurement": "δ-KO Imax", "setting": "[3]", "result": "-74 ± 19", "unit": "pA"}, {"measurement": "δ-KO slope (Hill slope)", "setting": "[3]", "result": "1.3 ± 0.2"}, {"measurement": "EC50", "setting": "[3]", "result": "8 µM and 8.2 µM"}, {"measurement": "IC50", "setting": "[1]; [6]", "result": "3.8 µM and ~4 µM"}, {"measurement": "WT Imax", "setting": "[2]", "result": "-45 ± 9", "unit": "pA"}, {"measurement": "WT slope (Hill slope)", "setting": "[2]", "result": "0.85 ± 0.1"}, {"measurement": "EC50", "setting": "[2]", "result": "3.2 ± 0.6", "unit": "µM"}, {"measurement": "IC50", "setting": "[4]; 5 nM [3H]muscimol", "result": "3.6 ± 0.6", "unit": "µM"}]}, {"compound": "CN(CC(=O)O)C(=N)N", "note": "[creatine]", "values": [{"measurement": "EC50", "setting": "creatine transporter", "result": "~35", "unit": "µM"}, {"measurement": "[3H]muscimol (5 nM) displacement", "setting": "[1]", "result": "absence of [^3H]muscimol (5 nM) displacement"}, {"measurement": "CGC GABAR activity", "setting": "[2]", "result": "absence of detectable CGC GABAR activity"}]}, {"compound": "NCCCC(=O)O", "note": "[GABA, γ-aminobutyrate]", "values": [{"measurement": "δ-KO Imax", "setting": "[3]", "result": "-65 ± 18", "unit": "pA"}, {"measurement": "δ-KO slope (Hill slope)", "setting": "[3]", "result": "1.1 ± 0.1"}, {"measurement": "WT Imax", "setting": "[2]", "result": "-66 ± 5", "unit": "pA"}, {"measurement": "WT slope (Hill slope)", "setting": "[2]", "result": "1.5 ± 0.3"}]}, {"compound": "N=C(N)NCCC[C@H](N)C(=O)O", "note": "[arginine]", "values": [{"measurement": "[3H]muscimol (5 nM) displacement", "setting": "[1]", "result": "absence of [^3H]muscimol (5 nM) displacement"}, {"measurement": "CGC GABAR activity", "setting": "[2]", "result": "absence of detectable CGC GABAR activity"}]}, {"compound": "COc1ccc(-c2ccc(=N)n(CCCC(=O)O)n2)cc1", "note": "[gabazine, Gabazine, reference compound]", "values": [{"measurement": "block of agonist-evoked CGC currents", "setting": "[2]; currents evoked by GAA, β-GPA, γ-GBA, GES in WT and δ-KO CGCs", "result": "completely blocked"}]}, {"compound": "NC(N)=NCCS(=O)(=O)O", "note": "[GES, guanidinoethanesulfonate]", "values": [{"measurement": "Km", "setting": "taurine transporter", "result": "~150", "unit": "µM"}, {"measurement": "δ-KO Imax", "setting": "[3]", "result": "-29 ± 6", "unit": "pA"}, {"measurement": "δ-KO slope (Hill slope)", "setting": "[3]", "result": "0.83 ± 0.2"}, {"measurement": "EC50", "setting": "[3]", "result": "72 ± 10", "unit": "µM"}, {"measurement": "IC50", "setting": "[1]; [6]", "result": "36 ± 7", "unit": "µM"}, {"measurement": "WT Imax", "setting": "[2]", "result": "-35 ± 7", "unit": "pA"}, {"measurement": "WT slope (Hill slope)", "setting": "[2]", "result": "0.89 ± 0.3"}, {"measurement": "EC50", "setting": "[2]", "result": "~32 µM and 32 µM"}, {"measurement": "IC50", "setting": "[4]; 5 nM [3H]muscimol", "result": "35 ± 4", "unit": "µM"}]}, {"compound": "[H]/N=C(/N)NCC(=O)O", "note": "[GAA, guanidinoacetate]", "values": [{"measurement": "δ-KO Imax", "setting": "[3]", "result": "-50 ± 10", "unit": "pA"}, {"measurement": "δ-KO slope (Hill slope)", "setting": "[3]", "result": "0.94 ± 0.1"}, {"measurement": "EC50", "setting": "[3]", "result": "14 ± 2", "unit": "µM"}, {"measurement": "IC50", "setting": "[1]; [6]", "result": "3.1 ± 0.7", "unit": "µM"}, {"measurement": "WT Imax", "setting": "[2]", "result": "-60 ± 18", "unit": "pA"}, {"measurement": "WT slope (Hill slope)", "setting": "[2]", "result": "1.1 ± 0.16"}, {"measurement": "EC50", "setting": "[2]", "result": "4.4 ± 0.9", "unit": "µM"}, {"measurement": "IC50", "setting": "[4]; 5 nM [3H]muscimol", "result": "2.5 ± 0.3", "unit": "µM"}]}, {"compound": "N=C(N)NCCCC(=O)O", "note": "[γ-GBA, γ-guanidinobutyrate]", "values": [{"measurement": "δ-KO Imax", "setting": "[3]", "result": "-32 ± 7", "unit": "pA"}, {"measurement": "δ-KO slope (Hill slope)", "setting": "[3]", "result": "0.95 ± 0.1"}, {"measurement": "EC50", "setting": "[3]", "result": "219 ± 11", "unit": "µM"}, {"measurement": "IC50", "setting": "[1]; [6]", "result": "8.5 ± 0.9", "unit": "µM"}, {"measurement": "IC50", "setting": "[1]; δ-KO values subtracted from WT values, read-out: δ-specific (WT minus δKO) displacement IC50", "result": "3.5 ± 1.2", "unit": "µM"}, {"measurement": "WT Imax", "setting": "[2]", "result": "-75 ± 12", "unit": "pA"}, {"measurement": "WT slope (Hill slope)", "setting": "[2]", "result": "0.81 ± 0.1"}, {"measurement": "EC50", "setting": "[2]", "result": "~44 µM and 44 µM"}, {"measurement": "IC50", "setting": "[4]; 5 nM [3H]muscimol", "result": "26 ± 5", "unit": "µM"}]}, {"compound": "NCc1cc(=O)[nH]o1", "note": "[[^3H]muscimol, [Methylene-^3H]muscimol, reference compound]", "values": [{"measurement": "5 nM [3H]muscimol binding, WT", "setting": "[1]; WT forebrain, specific binding normalized to protein", "result": "265 ± 7", "unit": "fmol/mg protein"}, {"measurement": "reduction of [3H]muscimol binding in δ-KO forebrain compared with WT", "setting": "[4]; 5 nM [3H]muscimol, forebrain", "result": "~ 50%"}, {"measurement": "5 nM [3H]muscimol binding, δ-KO", "setting": "[4]; δ-KO forebrain, specific binding normalized to protein", "result": "140 ± 5", "unit": "fmol/mg protein"}]}, {"compound": "NCc1cc(=O)[nH]o1", "note": "[muscimol]", "values": [{"measurement": "EC50", "setting": "[5]", "result": "1 to 10", "unit": "µM"}, {"measurement": "EC50", "setting": "α4β3δ receptors", "result": "~0.001", "unit": "µM"}]}]}
